The source of these data is US20110135763A1, “Antiseptic formulation especially for prevention of complications associated with skin burns” (priority 2009, published 2011).

One assay has as its system small capillaries. The assay can be described thus: inventor's experiments on the effect of DMSO on blood vessels. The conditions noted are these: DMSO in a concentration ranging between 50% and 100%; best results at substantially 100%. The text has this:
The higher the DMSO concentration was taken, the better result was achieved. Such phenomenon may effectively contribute to stopping leakage of capillaries and formation of blister, whereas the leakage and blister are the major factors leading to infections and delayed wound healing, and therefore to scar formation. […] The best results have been observed for usage of DMSO in the concentration of substantially 100%.
(d) DMSO (dimethyl sulfoxide) is known as an industrial solvent that has the ability to penetrate plant and animal tissues and to preserve living cells during freezing. It has bacteriostatic, anti-inflammatory, analgesic, radioprotective, fibrinolytic and vasodilative properties, and inhibits cholinesterase and granulation tissue. DMSO also has been used as an agent to increase the penetrability of other substances. […] This capability of DMSO has increased with an increase of the DMSO concentration, and the best results have been observed for usage of DMSO (USP grade) in the concentration essentially of 100%.

A further assay deals with T1, Human Leukocyte Elastase (Homo sapiens, UniProt P08246).
T1 sequence (P08246 30-267): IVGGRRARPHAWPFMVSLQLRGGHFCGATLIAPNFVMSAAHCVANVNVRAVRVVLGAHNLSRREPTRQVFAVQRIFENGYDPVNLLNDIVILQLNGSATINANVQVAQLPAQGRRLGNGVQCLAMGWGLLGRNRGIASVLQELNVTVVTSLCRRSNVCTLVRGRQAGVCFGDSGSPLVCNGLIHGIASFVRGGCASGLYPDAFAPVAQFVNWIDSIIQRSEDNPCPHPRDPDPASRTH
The conditions noted are these: Q. Ying et al., 1991; cited from earlier work.

Regarding `C[S+](C)[O-]` [DMSO, dimethyl sulfoxide], the “effect on small capillaries” value in the assay on small capillaries is recorded as “constricts small capillaries”.

With `C[C@H]1[C@H](C)CC[C@]2(C(=O)O)CC[C@]3(C)C(=CC[C@@H]4[C@@]5(C)CC[C@H](O)C(C)(C)[C@@H]5CC[C@]43C)[C@H]12` [Ursolic acid], the elastase inhibition result on Human Leukocyte Elastase was “potent elastase inhibitor”.
